According to patent publication US12194021B2, “Modified herbal compositions for neuromodulation” (University of Southern California, priority 2021, dated 2025):
Marks after values point to notes of the source that are not given here.

Assays:
mice = test: Elevated plus maze (EPM), anxiolytic effect of combination form; type: in vivo; conditions: 45 min after oral administration, comb 0.5, 1, 2 serving size, diazepam 2 mg/kg
Procedure: Alternatively, the elevated plus maze for mice can consist of two opposing open (24×8 cm) and two enclosed arms (24×8×25 cm) connected by a central platform forming the shape of a plus sign. The dimensions of the central field which connects the open and closed arms are 8×8 cm. The plus maze was elevated to a height of 50 cm. Each mouse was immediately placed in the central square of the apparatus with the head facing one of the closed arms. Mice behavior during 5 min was observed and recorded by means of a video camera (Canon Digital, Japan), which was fixed to the wall above the elevated plus maze. In this test, the following parameters were detected and calculated: the number of entries (open arm entries and closed arm entries), % of open arm entries, and % of time spent in open arms.
Anxiolytic effect evaluation of combination form (comb). A characteristic of the anxiolytic effects of comb (0.5, 1, and 2 serving size) was evaluated by elevated plus maze (EPM) tests (Table 3; FIG. 6). The EPM is considered an etiologically valid assessment of anxiolytic/anxiety in rodents because it uses natural stimuli (fear of a novel, brightly lit open space, and fear of balancing on a relatively narrow, raised platform) to determine anxiety-like behavior in animals. Anxiolytics are known to exert their pharmacological action by causing an increase in GABAergic neurotransmission in the brain.
Statistical analysis: one-way ANOVA, followed by Holm-Sidak post hoc comparison. […] Data were expressed as the means ±SEM, (n=7/group) percentage of open arm entries or of time spent on open arms in mice given a 5-min test, 45 min after oral administration of comb (0.5, 1, 2 serving size), or vehicle.

gephyrin = conditions: previously reported (Liang et al., 2014); cited from earlier work
[1] = Anecdotal test of effects on sleep
Procedure: We did an Anecdotal Test of the Effects of DHM on Sleep. […] They were given combination-formula (Comb-D, 1 serving size), DHM (250 mg), or melatonin (10 mg). After a week, we started collecting their reported sleep duration.

GABAARs = test: Whole-cell voltage-clamped recordings from hippocampal DGCs in slices (Itonic, mIPSCs); type: cell-based, rats; conditions: for GABAergic Itonic: basal Itonic 20 pA
Description: 2) Whole-Cell Patch-Clamp Recordings from Brain Slices. Transverse slices (400 lm) of dorsal hippocampus were obtained from wt and TG-SwDI mice (male, 20 months old) using a vibratome (VT 100; Technical Products International). Slices were perfused continuously with artificial CSF (ACSF) composed of the following (in mM): 125 NaCl, 2.5 KCl, 2 CaCl2, 2 MgCl2, 26 NaHCO3, and 10 D-glucose. The ACSF was bubbled continuously with 95% O2/5% CO2 to ensure adequate oxygenation of slices and a pH of 7.4 and kept at 34±0.5° C. for perfusion. TTX (0.5 μM), APV (40 μM), CNQX (10 μM), and CGP54626 (1 μM, GABABR antagonist) were added to ACSF to pharmacologically isolate GABAAR-mediated mIPSCs. Patch electrodes were filled with internal solution containing the following (in mM): 137 CsCl, 2 MgCl2, 1 CaCl2, 11 EGTA, 10 HEPES, and 3 ATP, pH adjusted to 7.30 with CsOH. Recordings targeted dentate gyms granule cells (DGCs) of hippocampal slices. Voltage-clamp whole-cell recording was performed using a patch clamp amplifier 3) EPM: All animals were tested anxiety levels on EPM. Animals were placed on the central area of the maze, tested for 5 min and video recorded. The following measures were scored: number of entries into open arms, closed arms, or center platform and time spent in each of these areas. Data were reported as % of number of entries in arms, % of time spent in different entries, and number of total entries.
To evaluate whether DHM-Piperidine Complex (D-P) can still potentiate GABAARs, whole-cell voltage-clamped recordings from hippocampal DGCs in slices were performed to test D-P and compared with DHM effects on GABAergic tonic current (Itonic) and miniature inhibitory postsynaptic currents (mIPSCs). […] Compared with DHM enhancing GABAergic Itonic from 20 pA (basal Itonic)→28 pA→31 pA→52 pA→55 pA, D-P enhancing GABAergic Itonic from 20 pA (basal Itonic)→35 pA→42 pA →65 pA→70 pA (Table 1).

Question: What does the source list for `CN1C(=O)CN=C(c2ccccc2)c2cc(Cl)ccc21` [diazepam]?
Answer: number of closed arm entries (mice): little effect; total number of arm entries (mice): significantly increased; percentage of open arm entries (mice; p<0.01): significantly elevated

Question: Which “GABAergic inhibitory transmission / gephyrin in TG mouse models” value (gephyrin) does the source give for `O=C1c2c(O)cc(O)cc2O[C@H](c2cc(O)c(O)c(O)c2)[C@H]1O` [DHM, dihydromyricetin, reference compound] here?
Answer: restores impaired GABAergic inhibitory transmission

Question: And the “sleep duration (average)” value ([1]; 250 mg oral daily)?
Answer: 5.5±0.65

Question: What about the “start of improvement of sleep” value ([1]; 250 mg oral daily) of the same molecule?
Answer: 1 to 7 days

Question: And the “dependence after finishing three-month test” value [1]?
Answer: without dependence

Question: What about the “Itonic, percent in brackets (increase over basal)” value (GABAARs; 0.1 μM) of the same molecule?
Answer: (40%)*

Question: What about the “mIPSCs (area potentiated)” value (GABAARs; 0.1 μM) of the same molecule?
Answer: 5.0%

Question: What about the “GABAergic Itonic” value (GABAARs; 0.1 μM) of the same molecule?
Answer: 28 pA

Question: What about the “Itonic, percent in brackets (increase over basal)” value (GABAARs; 0.3 μM) of the same molecule?
Answer: (55%)*

Question: What about the “mIPSCs (area potentiated)” value (GABAARs; 0.3 μM) of the same molecule?
Answer: 13.3%*

Question: And the “GABAergic Itonic” value (GABAARs; 0.3 μM)?
Answer: 31 pA

Question: What about the “Itonic, percent in brackets (increase over basal)” value (GABAARs; 1 μM) of the same molecule?
Answer: (160%)*

Question: And the “mIPSCs (area potentiated)” value (GABAARs; 1 μM)?
Answer: 58.3%*

Question: And the “GABAergic Itonic” value (GABAARs; 1 μM)?
Answer: 52 pA

Question: What about the “Itonic, percent in brackets (increase over basal)” value (GABAARs; 10 μM) of the same molecule?
Answer: (175%)*

Question: And the “mIPSCs (area potentiated)” value (GABAARs; 10 μM)?
Answer: 53.3%*

Question: What about the “GABAergic Itonic” value (GABAARs; 10 μM) of the same molecule?
Answer: 55 pA

Question: Which “complaints (discomfort)” value ([1]; 10 mg oral daily) does the source give for `COc1ccc2[nH]cc(CCNC(C)=O)c2c1` [melatonin] here?
Answer: dizziness on the second day, loss of energy, and other feelings of discomfort

Question: And the “time to show improvement in sleep” value ([1]; 10 mg oral daily)?
Answer: took a month

Question: And the “sleep duration (average)” value ([1]; 10 mg oral daily, in 40% attendees)?
Answer: 4.3 ± 0.9 h

Question: What about the “dependence after finishing three-month test” value [1] of the same molecule?
Answer: suffered withdrawal from the test
